Results on two compounds are retold here after patent US20260226006A1, “INDOLE COMPOUND, PREPARATION METHOD THEREFOR AND USE THEREOF” (SUZHOU MERNA THERAPEUTICS CO. LTD, priority 2023, published 2026).

For this test, the system named is HaCat cells. Briefly: m6A methylation level of drug-treated HaCat keratinocytes by nanopore sequencing (Example 14). Format: cell-based, human. Conditions: 50 nM drug, 24 hours. The protocol:
1*10^8 HaCat cells were seeded in culture dishes, into which 50 nM drugs (including sorafenib, capecitabine, docetaxel, and osimertinib) were added, respectively. The cells were cultured in an incubator containing 5% CO2 at 37° C. for 24 hours and washed with PBS after culture media were removed. Centrifugation was performed, the supernatant was discarded, and then, 400 μL of an RLT cell lysis buffer (QIAGEN, Cat. #79216) was added. A portion of samples were selected, into which 400 μL of 70% ethanol was added. The mixture was evenly stirred and then transferred to an RNeasy mini column, and RNA was extracted using an RNeasy mini kit (QIAGEN, Cat. #74104). 2 μL of an RNA sample was selected and dissolved in 98 μL of a 10 mM Tris-HCl buffer solution, and the absorbance at 260 nm was measured using a Nanodrop (Thermo Fisher Scientific) to determine the RNA concentration.
40 μg of an RNA sample was selected for enrichment of mRNA (PolyA+RNA) using an NEBNext Poly(A) mRNA magnetic isolation module (NEB, Cat. #E7490), and then, a 3′ end of the above enriched mRNA (PolyA+RNA) molecule was ligated with reverse transcription adapter RTA using a direct RNA sequencing kit (Oxford Nanopore Technologies, Cat. #SQK-RNA002). A reverse transcription reaction was performed with the mRNA (PolyA+RNA) molecule as a template to synthesize a complementary strand, a terminal end of the reverse transcription adapter RTA was ligated with a sequencing adapter (RNA adapter) to form a final sequencing library, and quantitative detection was performed using a Qubit™ dsDNA HS assay kit (Invitrogen, Cat. #LOT2133187).
After quality inspection of the library, the prepared sequencing library was loaded onto a PromethION flow cell chip (Oxford Nanopore Technologies, Cat. #FLO-MIN106D), and placed in a PromethION sequencer (Oxford Nanopore Technologies) for sequencing by selecting a matched sequencing mode. Basecalling was performed on sequencing data through guppy, and m6A methylation analysis was performed on original fast5 data.

For `C=CC(=O)Nc1cc(Nc2nccc(-c3cn(C)c4ccccc34)n2)c(OC)cc1N(C)CCN(C)C` [Osimertinib, osimertinib, reference compound], the “m6A methylation level of HaCat cells, increase compared with blank control group” value came to 5.13 times.

As to `CNC(=O)c1cc(Oc2ccc(NC(=O)Nc3ccc(Cl)c(C(F)(F)F)c3)cc2)ccn1` [Sorafenib, sorafenib, reference compound], the “m6A methylation level of HaCat cells, increase compared with blank control group” value was 5.05 times.
